Experimental data: PMC7016952, “Characterization of the Menin-MLL Interaction as Therapeutic Cancer Target” (Cancers, 2020)

Assays:
[1] = tested on: MOLM-13 cells; assay: Proliferation inhibition, MOLM-13; type: cell-based, human
[2] = tested on: T1, menin protein levels in VCaP cells; assay: Western blot of menin protein level; type: cell-based, human; conditions: Western blot
T1 construct: endogenous in cells; host or cells: VCaP

[3] = tested on: 401 cancer cell lines derived from 28 tissues of origin; assay: Cell line proliferation panel (OmniScreen, 401 cancer cell lines); type: cell-based
Experimental: The characterization of proliferation effects in 401 cancer cell lines was performed on the OmniScreen™ platform (CrownBio). Briefly, cells were seeded at the appropriate density for a five-day growth period and treated with BAY-155 (10 µM maximal concentration with 3.16-fold serial dilutions with 9 dose levels) or left untreated as control. For determination of viability the CellTiter-Glo® Luminescent Cell Viability Assay (Promega, Madison, WI, USA) was used. For absolute IC50 determination, a dose-response curve was fitted using a nonlinear regression model with a sigmoidal dose-response using GraphPad Prism 5.0. The surviving rate (%) = (LumTest-LumMedium control)/(LumNon-treated-LumMedium control) × 100%.

[4] = tested on: JMSU-1 cells; assay: RNA-seq differential gene expression, JMSU-1; type: cell-based; conditions: JMSU-1, 5 µM, 48 h
Experimental: (§1) Total RNA was isolated using RNeasy-Plus Mini kit (Qiagen, Hilden, Germany). RNA (1 μg) was reverse transcribed using SuperScript III First-Strand Synthesis SuperMix (Life Technologies) and the generated cDNA was analyzed with commercial primers (Supplementary Materials Table S1) by qRT-PCR using TaqMan Fast Advanced Master Mix (Life Technologies). For the RNA-seq study, ZR-75-1, BT474, PANC-1, MiaPaCa-2, 22RV1, JMSU-1, DLD-1, SW1463, LoVo and G401 cells were treated with 5 µM BAY-155 or DMSO for 48 h prior to RNA extraction. After 48 h of 5 µM BAY-155 or DMSO treatment, MCF7, VCaP and LNCaP cells were stimulated for further 12 h with 0.1 nM of E2 (ß-Estradiol) or 1 nM R1881, respectively. MCF7, VCaP and LNCaP cells were cultured in starvation medium (containing 5 µM BAY-155 or DMSO) 6 h before stimulation. RNA was isolated using RNeasy-Plus Mini kit (Qiagen). The purified RNA was used for library preparation (Illumina, San Diego, CA, USA. TruSeq Stranded mRNA Kit) and the generated libraries were sequenced (Illumina, HiSeq2500 HTv4, SR, dual-indexing, 50 cycles).
(§2) RNA-seq reads were aligned to hg38 using STAR aligner. Protein-coding genes with more than 10 reads in more than three samples were used for the analysis (total samples N = 86; genes N = 13,003). […]

[5] = tested on: PANC-1 cells; assay: RNA-seq differential gene expression, PANC-1; type: cell-based; conditions: PANC-1, 5 µM, 48 h
Experimental: as §1, §2

[6] = tested on: LNCaP cells; assay: RNA-seq after R1881 stimulation, LNCaP; type: cell-based
Experimental: as §1
RNA-seq reads were aligned to hg38 using STAR aligner. Protein-coding genes with more than 10 reads in more than three samples were used for the analysis (total samples N = 86; genes N = 13,003). DESeq2 was used to find genes differentially expressed upon treatment by the menin inhibitor in each cell line compared to DMSO or hormonal treatment (for MCF-7, LNCaP and VCaP cell lines). […] GSEA analysis was run on the pre-ranked list based on logFC in prostate (VCaP and LNCaP) and breast (MCF7) cell lines. Data are available at GEO under accession number GSE136272.

[7] = tested on: MV4;11 xenograft; assay: MV4;11 xenograft efficacy; type: in vivo, mice
Experimental: Tumor cells were injected subcutaneously into the flanks of 6- to 9-week old animals. Efficacy studies in xenograft models were performed at Bayer or EPO GmbH (Berlin-Buch, Germany) using NMRI nu/nu, SCID, BALB/c Nude female mice or SCID male mice (VCaP tumors). All animal studies were conducted in accordance with the animal welfare laws and were approved by the State Office for Health and Social Affairs Berlin (LAGeSo). Experiments were run under the animal license B3600a0007. Compound treatment started at a predefined tumor size or burden or at a predefined day after cell inoculation. […] Subcutaneous tumor volumes were determined by caliper measurement.

[8] = tested on: MOLM-13 xenograft; assay: MOLM-13 xenograft efficacy; type: in vivo, mice; conditions: p.o.
Experimental: (§3) Tumor cells were injected subcutaneously into the flanks of 6- to 9-week old animals. Efficacy studies in xenograft models were performed at Bayer or EPO GmbH (Berlin-Buch, Germany) using NMRI nu/nu, SCID, BALB/c Nude female mice or SCID male mice (VCaP tumors). All animal studies were conducted in accordance with the animal welfare laws and were approved by the State Office for Health and Social Affairs Berlin (LAGeSo). Experiments were run under the animal license B3600a0007. Compound treatment started at a predefined tumor size or burden or at a predefined day after cell inoculation. BAY-155 was administered orally (p.o.) at various doses and regorafenib, tamoxifen and enzalutamide (resuspended in PEG400/H2O 6/4 or PEG400/EtOH 9/1) were used as control treatment for RKO, MCF7 and VCaP xenografts, respectively. Subcutaneous tumor volumes were determined by caliper measurement.

[9] = tested on: RKO xenograft; assay: RKO xenograft efficacy; type: in vivo, mice
Experimental: as §3

[10] = tested on: MCF7 xenograft; assay: MCF7 xenograft efficacy; type: in vivo, mice
Experimental: as §3

[11] = tested on: MEIS1, MNDA and CD11b expression in MV4;11 and MOLM-13 xenografts; assay: Ex vivo gene expression in MV4;11 and MOLM-13 xenografts; parameters: species or system mice; conditions: 17 (MV4;11) or 11 (MOLM-13) days of treatment
Experimental: as §1
(§4) Tumors were harvested, dissociated and total RNA was extracted using the TissueLyser (Qiagen, Hilden, Germany) together with RNeasy-Plus Mini kit according to the manufacturer protocol.

[12] = tested on: ER signaling pathway genes in MCF7 tumor samples; assay: Ex vivo gene expression in MCF7 xenografts; parameters: species or system mice; conditions: 27 days of treatment
Experimental: as §1, §4

[13] = cited from earlier work
[14] = biological target: CYP 2D6 (Homo sapiens, UniProt P10635); conditions: cited from earlier work
[15] = biological target: CYP 2C8 (Homo sapiens, UniProt P10632); conditions: cited from earlier work
[16] = tested on: CYP enzymes; conditions: cited from earlier work

Chain of CYP 2C8 (P10632 whole entry): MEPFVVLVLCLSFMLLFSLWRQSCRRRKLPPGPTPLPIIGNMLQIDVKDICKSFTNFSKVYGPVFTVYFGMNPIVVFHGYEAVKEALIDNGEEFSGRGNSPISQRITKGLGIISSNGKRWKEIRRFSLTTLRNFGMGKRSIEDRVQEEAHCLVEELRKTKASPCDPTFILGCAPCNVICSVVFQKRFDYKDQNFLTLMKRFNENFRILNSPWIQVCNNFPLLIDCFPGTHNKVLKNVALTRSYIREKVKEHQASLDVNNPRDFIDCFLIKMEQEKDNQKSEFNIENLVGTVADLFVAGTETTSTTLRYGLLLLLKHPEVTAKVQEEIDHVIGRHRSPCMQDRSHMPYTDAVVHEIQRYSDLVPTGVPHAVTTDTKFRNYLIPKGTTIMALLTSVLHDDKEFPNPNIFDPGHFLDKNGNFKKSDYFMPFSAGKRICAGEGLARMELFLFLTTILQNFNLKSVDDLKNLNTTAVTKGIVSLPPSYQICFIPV
Chain of CYP 2D6 (P10635 whole entry): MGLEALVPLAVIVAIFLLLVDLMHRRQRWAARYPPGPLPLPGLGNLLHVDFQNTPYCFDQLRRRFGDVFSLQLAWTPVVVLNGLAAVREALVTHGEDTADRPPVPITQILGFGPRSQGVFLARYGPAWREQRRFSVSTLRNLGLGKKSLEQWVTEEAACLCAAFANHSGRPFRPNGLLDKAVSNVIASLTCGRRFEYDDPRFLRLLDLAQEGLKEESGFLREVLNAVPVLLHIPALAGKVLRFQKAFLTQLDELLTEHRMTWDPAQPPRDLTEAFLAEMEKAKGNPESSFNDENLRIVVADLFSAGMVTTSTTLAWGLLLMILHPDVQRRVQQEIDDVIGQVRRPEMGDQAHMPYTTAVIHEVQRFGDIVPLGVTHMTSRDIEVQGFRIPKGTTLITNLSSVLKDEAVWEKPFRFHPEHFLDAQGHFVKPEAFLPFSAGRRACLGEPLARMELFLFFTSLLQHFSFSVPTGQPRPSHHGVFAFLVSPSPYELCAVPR

In the case of `Cc1c(CN2CCC3(CC2)CN(c2ncnc4sc(CC(F)(F)F)cc24)C3)ccc2c1cc(C#N)n2CC(N)=O` [BAY-155], the “fold improved proliferation inhibition vs MI-503” value [1] is reported as 6.3 fold, the menin protein levels [2] is reported as “reduce menin protein levels in a time- and concentration-dependent manner” and the “proliferation of cancer models originating from breast, prostate or bone” value [3] is reported as “not affected”. The “sensitivity of all tested MLL-AF4, MLL-AF9 and MLL-TD leukemia cell lines” value [3] was “sensitive”, the IC50 ([3]; 120 h, read-out: IC50 in the vast majority of tested cell line models) was > 10 µM and the “sensitivity of KYSE-150 and RKO cells in the in vitro screen” value ([3]; IC50 in similar range to MV4;11 and MOLM-13) was “highly sensitive”. The “share of liver-derived models with reduced proliferation” value ([3]; n = 33, IC50 below 5 µM taken as significant) was 30%, the “share of blood cell-derived models with reduced proliferation” value ([3]; n = 73, IC50 below 5 µM taken as significant) was 26% and the “number of differentially expressed genes” value [4] was 665 genes. For the same compound, the “number of differentially expressed genes” value [5] was 346 genes, the “GSEA of androgen-regulated gene sets” value [6] was “significant reversal of androgen-induced gene expression changes” and the “genes down-regulated by androgen stimulation that were reversed” value ([6]; 5 µM, R1881) was 141 genes. The “genes up-regulated by androgen stimulation that were reversed” value ([6]; 5 µM, R1881) was 24 genes, the body weight ([7]; 180 mg/kg 2QD p.o.) was “no evidence of body weight loss” and the “tumor volume T/C” value ([7]; 180 mg/kg 2QD p.o., regression) was < 0.02. For the same compound, the tumor weights ([7]; p.o.) was “clear concentration-dependent trend for reduced tumor weights”, the tumor volume [8] was “dose-dependent inhibition of tumor volume” and the tumor weight [8] was “significant reduction of tumor weight”. The “tumor volume and weight (anti-growth effects)” value [9] was “no significant anti-growth effects”, the “tumor volume and tumor weight” value [10] was “no significant effects” and the “MEIS1 expression ex vivo” value [11] was “concentration-dependent and significant down-regulation”. For the same compound, the “MNDA and CD11b expression ex vivo” value [11] was “up-regulation”, the “EGR3, GREB1 and PGR1 expression ex vivo” value [12] was “no significant effects” and the “in vivo CL blood Rat” value [13] was 18.3 mL/min/kg. For the same compound, the “in vivo F Rat” value [13] was 15.3%, the IC50 [14] was > 20 µM and the IC50 [15] was > 20 µM. The “inhibition of CYP enzymes (in words)” value [16] was “no inhibition”.
